# Species on record: Homo sapiens
# Assay: Compound tested for the inhibition of IL1-beta release stimulated with LPS in human monocytes was determined at a concentration of 1 uM
# Assay type: functional
row,SMILES,inhibition at 1 µM [%]
1,COC(=O)[C@@]1(C)CCC[C@]2(C)c3cc(O)c([N+](=O)[O-])cc3C=C[C@@H]12,5
2,COC(=O)[C@@]1(C)CCC[C@]2(C)c3cc(O)ccc3CCC12 (stereo partly drawn),15
3,COC(=O)[C@@]1(C)CCC[C@]2(C)c3cc(O)c(O)cc3CCC12 (stereo partly drawn),42
4,COC(=O)[C@@]1(C)CCC[C@]2(C)c3cc(O)c(C(C)C)cc3C=C[C@@H]12,38

# Species on record: Homo sapiens
# Assay: Inhibition of IL1-beta release stimulated with LPS in human monocytes
# Assay type: functional
row,SMILES,IC50 [nM]
1,COC(=O)c1cc2c(cc1C(=O)OC)[C@@]1(C)CCC[C@](C)(C(=O)O)C1C=C2 (stereo partly drawn),110
2,COC(=O)c1cc2c(cc1OC)C=C[C@H]1[C@@](C)(C(=O)OC)CCC[C@]21C,100
3,COC(=O)C[C@@]1(C)CCC[C@]2(C)c3cc(C(=O)OC)c(C(=O)OC)cc3C=CC12 (stereo partly drawn),160
4,C=CCc1c2c(cc(C(=O)OC)c1C(=O)OC)[C@@]1(C)CCC[C@](C)(C(=O)OC)C1CC2 (stereo partly drawn),200
5,CCCc1c(C(=O)OC)c(C(=O)OC)cc2c1C(=O)CC1[C@@](C)(C(=O)OC)CCC[C@]21C (stereo partly drawn),800
6,COC(=O)c1cc2c(cc1C(=O)OC)[C@@]1(C)CCC[C@](C)(C(=O)OC)C1CC2=O (stereo partly drawn),1000
7,CCCc1c2c(cc(C(=O)OC)c1C(=O)OC)[C@@]1(C)CCC[C@](C)(C(=O)OC)C1CC2 (stereo partly drawn),300
8,CCOC(=O)CCCNC(=O)[C@@]1(C)CCC[C@]2(C)c3cc(C(=O)OC)c(C(=O)OC)cc3C=CC12 (stereo partly drawn),150
9,CCCc1c2c(cc(OC)c1C(=O)OC)[C@@]1(C)CCC[C@](C)(C(=O)OC)[C@@H]1C=C2,300
10,COC(=O)[C@@]1(C)CCC[C@]2(C)c3cc(O)c(OC)cc3C=C[C@@H]12,100
11,COC(=O)[C@@]1(C)CCC[C@]2(C)c3cc(C(=O)OC(C)(C)C)c(C(=O)OC(C)(C)C)cc3C=CC12 (stereo partly drawn),540
12,COC(=O)[C@@]1(C)CCC[C@]2(C)c3cc(O)c(N)cc3C=C[C@@H]12,150
13,COC(=O)[C@@]1(C)CCC[C@]2(C)c3cc(O)c(O)cc3C=CC12 (stereo partly drawn),100
14,COC(=O)c1cc2c(cc1OC)[C@@]1(C)CCC[C@](C)(C(=O)OC)[C@@H]1C(=O)C2,260
15,COC(=O)c1cc2c(c(C)c1C(=O)OC)C=CC1[C@@](C)(C(=O)OC)CCC[C@]21C (stereo partly drawn),140
16,COC(=O)c1cc2c(c(C(C)=O)c1C(=O)OC)CCC1[C@@](C)(C(=O)OC)CCC[C@]21C (stereo partly drawn),110
17,COC(=O)c1cc2c(c(C)c1C(=O)OC)C(C)=CC1[C@@](C)(C(=O)OC)CCC[C@]21C (stereo partly drawn),200
18,COC(=O)c1cc2c(c(Br)c1C(=O)OC)CCC1[C@@](C)(C(=O)OC)CCC[C@]21C (stereo partly drawn),400
19,COC(=O)c1cc2c(cc1Br)C=C[C@H]1[C@@](C)(C(=O)OC)CCC[C@]21C,800
20,COC(=O)c1cc2c(cc1NS(C)(=O)=O)C=C[C@H]1[C@@](C)(C(=O)OC)CCC[C@]21C,100
21,COC(=O)c1cc2c(cc1C(=O)OC)[C@@]1(C)CCC[C@](C)(C(=O)OC)C1C=C2 (stereo partly drawn),100
22,CCCc1c2c(cc(C(=O)OC)c1C(=O)OC)[C@@]1(C)CCC[C@](C)(C(=O)OC)C1C=C2 (stereo partly drawn),110
23,COC(=O)[C@@]1(C)CCC[C@]2(C)c3cc(C(=O)OC(C)C)c(C(=O)OC(C)C)cc3C=CC12 (stereo partly drawn),110
24,COC(=O)Cc1cc2c(cc1C(=O)OC)[C@@]1(C)CCC[C@](C)(C(=O)OC)[C@@H]1C=C2,400
25,COC(=O)[C@@]1(C)CCC[C@]2(C)c3cc(OC)c(O)cc3CC[C@@H]12,1400
26,COC(=O)c1cc2c(cc1C(=O)OC)[C@@]1(C)CCC[C@](C)(C(=O)N3CCOCC3)C1C=C2 (stereo partly drawn),110
27,COc1cc2c(c(C)c1O)C=C[C@H]1[C@@](C)(C(=O)O)CCC[C@]21C,100
28,COC(=O)c1cc2c(cc1OC)[C@@]1(C)CCC[C@](C)(C(=O)OC)[C@@H]1C=C2,160
29,COC(=O)[C@@]1(C)CCC[C@]2(C)c3cc(OC)c(O)cc3C=C[C@@H]12,100

# — ChEMBL document CHEMBL1131935, “Novel cytokine release inhibitors. Part IV: analogs of podocarpic acid” (Bioorg Med Chem Lett, 1999)
